Reference: patent EP3915971A1, “PHENYL-S(O)N-PHENYLAMIDINES AND THE USE THEREOF AS FUNGICIDES” (Bayer Aktiengesellschaft, priority 2020, dated 2021)

Assay: LogP measurement by HPLC on reversed phase columns (EEC directive 79/831 Annex V.A8)
Assay type: physicochemical
Details: method [a]: LC-UV, acidic range, 0.1% formic acid in water and acetonitrile as eluent (linear gradient 10% to 95% acetonitrile)
Protocol: Measurement of LogP values was performed according to EEC directive 79/831 Annex V.A8 by HPLC (High Performance Liquid Chromatography) on reversed phase columns with the following methods: • ^[a] LogP value is determined by measurement of LC-UV, in an acidic range, with 0.1% formic acid in water and acetonitrile as eluent (linear gradient from 10% acetonitrile to 95% acetonitrile). • ^[b] LogP value is determined by measurement of LC-UV, in a neutral range, with 0.001 molar ammonium acetate solution in water and acetonitrile as eluent (linear gradient from 10% acetonitrile to 95% acetonitrile). • ^[c] LogP value is determined by measurement of LC-UV, in an acidic range, with 0.1% phosphoric acid and acetonitrile as eluent (linear gradient from 10% acetonitrile to 95% acetonitrile).
If more than one LogP value is available within the same method, all the values are given and separated by "+". […]

Compound	chromatographic logP
CCN(C)C=Nc1cc(C)c([S+]([O-])c2ccccc2F)cc1C (centres unmarked) [Example I-011, N-ethyl-N'-[4-(2-fluorophenyl)sul6nyl-2,5-dimethylphenyl]-N-methylmethanimidamide]	0.78

Same assay, conditions: reversed phase HPLC columns, method [a]: LC-UV, acidic range, 0.1% formic acid in water and acetonitrile as eluent (linear gradient 10% to 95% acetonitrile)

Compound	chromatographic logP
CCN(C)C=Nc1cc(C)c(S(=O)(=O)c2ccccc2)cc1C [Example I-004, N'-[4-(benzenesulfonyl)-2,5-dimethylphenyl]-N-ethyl-N-methylmethanimidamide]	1
CCN(C)C=Nc1cc(C)c([S+]([O-])c2ccccc2Cl)cc1C (centres unmarked) [Example I-010, N'-[4-(2-chlorophenyl)sulfinyl-2,5-dimethylphenyl]-N-ethyl-N-methylmethanimidamide]	0.97
CCN(C)C=Nc1cc(C)c([S+]([O-])c2ccccc2C)cc1Cl (centres unmarked) [Example I-012, N'-[2-chloro-5-methyl-4-(2-methylphenyl)sulfinylphenyl]-N-ethyl-N-methylmethanimidamide]	0.97
CCN(C)C=Nc1cc(C)c([S+]([O-])c2ccccc2Cl)cc1Cl (centres unmarked) [Example I-013, N'-[2-chloro-4-(2-chlorophenyl)sulfinyl-5-methylphenyl]-N-ethyl-N-methylmethanimidamide]	1.15
CCN(C)C=Nc1cc(C)c([S+]([O-])c2ccccc2F)cc1Cl (centres unmarked) [Example I-014, N'-[2-chloro-4-(2-fluorophenyl)sulfinyl-5-methylphenyl]-N-ethyl-N-methylmethanimidamide]	0.94
CCN(C)C=Nc1cc(C)c(S(=O)(=O)c2ccccc2C)cc1Cl [Example I-015, N'-[2-chloro-5-methyl-4-(2-methylphenyl)sulfonylphenyl]-N-ethyl-N-methylmethanimidamide]	1.69
CCN(C)C=Nc1cc(C)c(S(=O)(=O)c2ccccc2C)cc1C [Example I-016, N'-[2,5-dimethyl-4-(2-methylphenyl)sulfonylphenyl]-N-ethyl-N-methylmethanimidamide]	1.18
CCN(C)C=Nc1cc(C)c(S(=O)(=O)c2ccccc2F)cc1C [Example I-017, N-ethyl-N'-[4-(2-fluorophenyl)sulfonyl-2,5-dimethylphenyl]-N-methylmethanimidamide]	1.07
CCN(C)C=Nc1cc(C)c(S(=O)(=O)c2ccccc2Cl)cc1Cl [Example I-018, N'-[2-chloro-4-(2-chlorophenyl)sulfonyl-5-methylphenyl]-N-ethyl-N-methylmethanimidamide]	2.02
CCN(C)C=Nc1cc(C)c(S(=O)(=O)c2ccccc2F)cc1Cl [Example I-019, N'-[2-chloro-4-(2-fluorophenyl)sulfonyl-5-methylphenyl]-N-ethyl-N-methylmethanimidamide]	1.84
CCN(C)C=Nc1cc(F)c(S(=O)(=O)c2ccccc2)cc1C [Example I-027, N'-[4-(benzenesulfonyl)-5-fluoro-2-methylphenyl]-N-ethyl-N-methylmethanimidamide]	1.18
CCN(C)C=Nc1cc(F)c(S(=O)(=O)c2ccccc2C)cc1C [Example I-028, N-ethyl-N'-[5-fluoro-2-methyl-4-(2-methylphenyl)sulfonylphenyl]-N-methylmethanimidamide]	1.42
CCN(C)C=Nc1cc(F)c(S(=O)(=O)c2ccccc2Cl)cc1C [Example I-029, N'-[4-(2-chlorophenyl)sulfonyl-5-fluoro-2-methylphenyl]-N-ethyl-N-methylmethanimidamide]	1.45
CCN(C)C=Nc1cc(Cl)c([S+]([O-])c2ccccc2F)cc1C (centres unmarked) [Example I-030, N'-[5-chloro-4-(2-fluorophenyl)sulfinyl-2-methylphenyl]-N-ethyl-N-methylmethanimidamide]	1.03
CCN(C)C=Nc1cc(F)c([S+]([O-])c2ccccc2)cc1C (centres unmarked) [Example I-031, N'-[4-(benzenesulfinyl)-5-fluoro-2-methylphenyl]-N-ethyl-N-methylmethanimidamide]	0.78
CCN(C)C=Nc1cc(F)c([S+]([O-])c2ccccc2C)cc1C (centres unmarked) [Example I-032, N-ethyl-N'-[5-fluoro-2-methyl-4-(2-methylphenyl)sulfinylphenyl]-N-methylmethanimidamide]	1
CCN(C)C=Nc1cc(F)c([S+]([O-])c2ccccc2Cl)cc1C (centres unmarked) [Example I-033, N'-[4-(2-chlorophenyl)sulfinyl-5-fluoro-2-methylphenyl]-N-ethyl-N-methylmethanimidamide]	1.12
CCN(C)C=Nc1cc(Cl)c(S(=O)(=O)c2ccccc2C)cc1C [Example I-034, N'-[5-chloro-2-methyl-4-(2-methylphenyl)sulfonylphenyl]-N-ethyl-N-methylmethanimidamide]	1.5
CCN(C)C=Nc1cc(Br)c([S+]([O-])c2ccccc2C)cc1C (centres unmarked) [Example I-035, N'-[5-bromo-2-methyl-4-(2-methylphenyl)sulfinylphenyl]-N-ethyl-N-methylmethanimidamide]	1.12

Compound	chromatographic logP
CCN(C)C=Nc1cc(Br)c([S+]([O-])c2ccccc2Cl)cc1C (centres unmarked) [Example I-036, N'-[5-bromo-4-(2-chlorophenyl)sulfinyl-2-methylphenyl]-N-ethyl-N-methylmethanimidamide]	1.26
CCN(C)C=Nc1cc(Cl)c([S+]([O-])c2ccccc2C)cc1C (centres unmarked) [Example I-037, N'-[5-chloro-2-methyl-4-(2-methylphenyl)sulfinylphenyl]-N-ethyl-N-methylmethanimidamide]	1.1
CCN(C)C=Nc1cc(Br)c([S+]([O-])c2ccccc2)cc1C (centres unmarked) [Example I-038, N'-[4-(benzenesulfinyl)-5-bromo-2-methylphenyl]-N-ethyl-N-methylmethanimidamide]	1
CCN(C)C=Nc1cc(Cl)c([S+]([O-])c2ccccc2Cl)cc1C (centres unmarked) [Example I-040, N'-[5-chloro-4-(2-chlorophenyl)sulfinyl-2-methylphenyl]-N-ethyl-N-methylmethanimidamide]	1.23
CCN(C)C=Nc1cc(Br)c([S+]([O-])c2ccccc2F)cc1C (centres unmarked) [Example I-043, N'-[5-bromo-4-(2-fluorophenyl)sulfinyl-2-methylphenyl]-N-ethyl-N-methylmethanimidamide]	1.1
CCN(C)C=Nc1cc(Cl)c(S(=O)(=O)c2ccccc2)cc1C [Example I-048, N'-[4-(benzenesulfonyl)-5-chloro-2-methylphenyl]-N-ethyl-N-methylmethanimidamide]	1.31
CCN(C)C=Nc1cc(C)c(S(=O)(=O)c2ccccc2C#N)cc1C [Example I-049, N'-[4-(2-cyanophenyl)sulfonyl-2,5-dimethylphenyl]-N-ethyl-N-methylmethanimidamide]	1
CCN(C)C=Nc1cc(Cl)c([S+]([O-])c2ccccc2)cc1C (centres unmarked) [Example I-050, N'-[4-(benzenesulfinyl)-5-chloro-2-methylphenyl]-N-ethyl-N-methylmethanimidamide]	0.97
CCN(C)C=Nc1cc(Cl)c([S+]([O-])c2ccccc2C#N)cc1C (centres unmarked) [Example I-051, N'-[5-chloro-4-(2-cyanophenyl)sulfinyl-2-methylphenyl]-N-ethyl-N-methylmethanimidamide]	0.87
CCN(C)C=Nc1cc(Cl)c(S(=O)(=O)c2ccccc2C#N)cc1C [Example I-053, N'-[5-chloro-4-(2-cyanophenyl)sulfonyl-2-methylphenyl]-N-ethyl-N-methylmethanimidamide]	1.31
CCN(C)C=Nc1cc(C#N)c(S(=O)(=O)c2ccccc2)cc1C [Example I-055, N'-[4-(benzenesulfonyl)-5-cyano-2-methylphenyl]-N-ethyl-N-methylmethanimidamide]	1.53
CCN(C)C=Nc1cc(C#N)c([S+]([O-])c2ccccc2)cc1C (centres unmarked) [Example I-056, N'-[4-(benzenesulfinyl)-5-cyano-2-methylphenyl]-N-ethyl-N-methylmethanimidamide]	0.87
CCN(C)C=Nc1cc(C#N)c([S+]([O-])c2ccccc2C)cc1C (centres unmarked) [Example I-057, N'-[5-cyano-2-methyl-4-(2-methylphenyl)sulfinylphenyl]-N-ethyl-N-methylmethanimidamide]	1.28
CCN(C)C=Nc1cc(C#N)c(S(=O)(=O)c2ccccc2C)cc1C [Example I-059, N'-[5-cyano-2-methyl-4-(2-methylphenyl)sulfonylphenyl]-N-ethyl-N-methylmethanimidamide]	1.8
CCN(C)C=Nc1cc(C#N)c([S+]([O-])c2ccccc2Cl)cc1C (centres unmarked) [Example I-061, N'-[4-(2-chlorophenyl)sulfinyl-5-cyano-2-methylphenyl]-N-ethyl-N-methylmethanimidamide]	1.27
CCN(C)C=Nc1cc(C#N)c(S(=O)(=O)c2ccccc2Cl)cc1C [Example I-062, N'-[4-(2-chlorophenyl)sulfonyl-5-cyano-2-methylphenyl]-N-ethyl-N-methylmethanimidamide]	1.84
CCN(C)C=Nc1cc(C)c([S+]([O-])c2ccccc2C)cc1Br (centres unmarked) [Example I-063, N'-[2-bromo-5-methyl-4-(2-methylphenyl)sulfinylphenyl]-N-ethyl-N-methylmethanimidamide]	1.15
CCN(C)C=Nc1cc(Br)c([S+]([O-])c2ccccc2C#N)cc1C (centres unmarked) [Example I-064, N'-[5-bromo-4-(2-cyanophenyl)sulfinyl-2-methylphenyl]-N-ethyl-N-methylmethanimidamide]	0.93
